These results are taken from ChEMBL document CHEMBL1126499, “Inhibition of 2,3-oxidosqualene cyclase by N-alkylpiperidines” (Bioorg Med Chem Lett, 1993).

The test system of one assay is HepG2. The assay can be described thus: Inhibitory concentration against cholesterol biosynthesis in HepG2 cells. Particulars: Homo sapiens; call rule not given here.
The target of the next assay is T1, Lanosterol synthase (Rattus norvegicus, UniProt P48450).
T1 sequence (P48450 whole entry): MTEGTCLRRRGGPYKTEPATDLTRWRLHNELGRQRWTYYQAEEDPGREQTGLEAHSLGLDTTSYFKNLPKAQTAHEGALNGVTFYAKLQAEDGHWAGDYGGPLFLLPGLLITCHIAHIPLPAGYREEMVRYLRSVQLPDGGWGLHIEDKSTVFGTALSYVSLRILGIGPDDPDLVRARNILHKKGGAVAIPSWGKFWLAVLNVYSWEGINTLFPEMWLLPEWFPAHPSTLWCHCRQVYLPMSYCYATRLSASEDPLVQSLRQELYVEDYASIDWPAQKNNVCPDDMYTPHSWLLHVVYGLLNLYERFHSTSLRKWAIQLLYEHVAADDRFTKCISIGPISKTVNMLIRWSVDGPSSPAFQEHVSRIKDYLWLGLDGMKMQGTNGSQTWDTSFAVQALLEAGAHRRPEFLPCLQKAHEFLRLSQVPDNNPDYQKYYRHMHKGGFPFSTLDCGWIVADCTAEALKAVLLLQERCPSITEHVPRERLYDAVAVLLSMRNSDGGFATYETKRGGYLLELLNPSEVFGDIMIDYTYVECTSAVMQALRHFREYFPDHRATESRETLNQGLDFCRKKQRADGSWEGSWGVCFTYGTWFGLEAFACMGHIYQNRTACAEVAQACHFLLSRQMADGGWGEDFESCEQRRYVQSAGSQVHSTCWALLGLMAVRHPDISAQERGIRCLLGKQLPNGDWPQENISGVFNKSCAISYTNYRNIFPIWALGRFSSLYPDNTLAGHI
The experiment in a line: Inhibitory concentration against purified rat liver Oxidosqualene cyclase (OSC); NI means no inhibition.

Usually IC50 stands for the concentration at which inhibition is half-maximal. A high value points to weaker potency in that assay. `CCCCCCCCCCCC(=O)N1CC[C@H]2[C@H](C)[C@@H](O)CC[C@]2(C)C1` showed an IC50 with HepG2 of 0.0007 µM.

For the molecule `CCCCCCCCCCCCC(=O)N1CCC(C(C)CO)CC1` (stereo not given), in the assay on HepG2, it took 0.012 µM to reach half-maximal inhibition (IC50). `C[C@@H]1[C@@H](O)CC[C@]2(C)CN(Cc3ccccc3)CC[C@@H]12`: the half-inhibitory concentration (IC50) result on Lanosterol synthase was “Not Active”. As for `CCCCCCCCCCCCN1CCC(C(C)CO)CC1` (stereo not given), 0.04 µM corresponded to half-maximal inhibition with HepG2 (IC50). The molecule `CC(C)CCCC(C)CCCC(C)N1CCCCC1` (stereo not given) showed a concentration for half-maximal inhibition (IC50) in the assay on HepG2 of 30 µM.
